Assay: Safety: adverse events (NCI CTCAE v5.0), electrocardiograms
Type: in vivo, human
Details: phase 1a; for TEAE Neutropenia, Toxicity Grade All: includes neutropenia and neutrophil count decreased
Protocol: Safety assessments included the monitoring of AEs, clinical laboratory parameters, electrocardiograms, and vital signs. AE severity was graded according to the National Cancer Institute Common Terminology Criteria for Adverse Events (version 5.0).
All DLT analyses (phase 1a) were performed in patients enrolled in the study during cycle 1 and who either received 75% of the planned palazestrant doses or experienced a DLT during cycle 1. All PK analyses were performed in patients who received at least 1 dose of palazestrant and had adequate postbaseline PK samples for characterization of PK parameters. All safety analyses were performed and PFS assessed in patients who received at least 1 dose of palazestrant. Clinical response (CR or PR) was assessed in patients who received at least 1 cycle of palazestrant, had measurable disease at baseline, and had at least 1 postbaseline tumor assessment. CBR was assessed in patients who received at least 1 cycle of palazestrant, had at least 1 postbaseline tumor assessment, and started their first dose at least 24 weeks before data cutoff. Patients who discontinued study treatment without radiographic progression within 24 weeks from the first dose were not included in the CBR analysis. PK parameters were estimated using conventional noncompartmental methods. For CBR, estimates were accompanied by 2-sided 95% confidence intervals (95% CIs). For PFS, Kaplan–Meier analyses were used to determine medians, event-free rates, and 95% CIs. For all other outcomes, categorical data were analyzed using frequencies and percentages, and continuous data were analyzed using means (standard deviation) or medians (range), as appropriate.

CCCN1CC(Oc2ccc([C@@H]3c4[nH]c5ccccc5c4C[C@@H](C)N3CC(C)(C)F)cc2)C1 [palazestrant, Palazestrant]
TEAE Vomiting, Toxicity Grade G3 (60 mg (N=6)): 0
TEAE Vomiting, Toxicity Grade G4 (60 mg (N=6)): 0
TEAE Neutropenia, Toxicity Grade All (60 mg (N=6)): 1 (16.7)
TEAE Constipation, Toxicity Grade All (90 mg (N=6)): 1 (16.7)
TEAE Constipation, Toxicity Grade G3 (90 mg (N=6)): 0
TEAE Constipation, Toxicity Grade G4 (90 mg (N=6)): 0
TEAE Decreased appetite, Toxicity Grade All (90 mg (N=6)): 1 (16.7)
TEAE Decreased appetite, Toxicity Grade G3 (90 mg (N=6)): 0
TEAE Decreased appetite, Toxicity Grade G4 (90 mg (N=6)): 0
TEAE Diarrhea, Toxicity Grade All (90 mg (N=6)): 0
TEAE Diarrhea, Toxicity Grade G3 (90 mg (N=6)): 0
TEAE Diarrhea, Toxicity Grade G4 (90 mg (N=6)): 0
TEAE Fatigue, Toxicity Grade All (90 mg (N=6)): 0
TEAE Fatigue, Toxicity Grade G3 (90 mg (N=6)): 0
TEAE Fatigue, Toxicity Grade G4 (90 mg (N=6)): 0
TEAE Headache, Toxicity Grade All (90 mg (N=6)): 1 (16.7)
TEAE Headache, Toxicity Grade G3 (90 mg (N=6)): 0
TEAE Headache, Toxicity Grade G4 (90 mg (N=6)): 0
TEAE Maculopapular rash, Toxicity Grade All (90 mg (N=6)): 0
TEAE Maculopapular rash, Toxicity Grade G3 (90 mg (N=6)): 0
TEAE Maculopapular rash, Toxicity Grade G4 (90 mg (N=6)): 0
TEAE Nausea, Toxicity Grade All (90 mg (N=6)): 2 (33.3)
TEAE Nausea, Toxicity Grade G3 (90 mg (N=6)): 0
TEAE Nausea, Toxicity Grade G4 (90 mg (N=6)): 0
TEAE Neutropenia, Toxicity Grade G3 (90 mg (N=6)): 0
TEAE Neutropenia, Toxicity Grade G4 (90 mg (N=6)): 0
TEAE Vomiting, Toxicity Grade All (90 mg (N=6)): 1 (16.7)
TEAE Vomiting, Toxicity Grade G3 (90 mg (N=6)): 0
TEAE Vomiting, Toxicity Grade G4 (90 mg (N=6)): 0
TEAE Neutropenia, Toxicity Grade All (90 mg (N=6)): 0
TEAE Constipation, Toxicity Grade All (120 mg (N=6)): 0
TEAE Constipation, Toxicity Grade G3 (120 mg (N=6)): 0
TEAE Constipation, Toxicity Grade G4 (120 mg (N=6)): 0
TEAE Decreased appetite, Toxicity Grade All (120 mg (N=6)): 1 (16.7)
TEAE Decreased appetite, Toxicity Grade G3 (120 mg (N=6)): 0
TEAE Decreased appetite, Toxicity Grade G4 (120 mg (N=6)): 0
TEAE Diarrhea, Toxicity Grade All (120 mg (N=6)): 1 (16.7)
TEAE Diarrhea, Toxicity Grade G3 (120 mg (N=6)): 0
TEAE Diarrhea, Toxicity Grade G4 (120 mg (N=6)): 0
TEAE Fatigue, Toxicity Grade All (120 mg (N=6)): 2 (33.3)
TEAE Fatigue, Toxicity Grade G3 (120 mg (N=6)): 0
TEAE Fatigue, Toxicity Grade G4 (120 mg (N=6)): 0
TEAE Headache, Toxicity Grade All (120 mg (N=6)): 1 (16.7)
TEAE Headache, Toxicity Grade G3 (120 mg (N=6)): 0
TEAE Headache, Toxicity Grade G4 (120 mg (N=6)): 0
TEAE Maculopapular rash, Toxicity Grade All (120 mg (N=6)): 1 (16.7)
TEAE Maculopapular rash, Toxicity Grade G3 (120 mg (N=6)): 0
TEAE Maculopapular rash, Toxicity Grade G4 (120 mg (N=6)): 0
TEAE Nausea, Toxicity Grade All (120 mg (N=6)): 5 (83.3)
TEAE Nausea, Toxicity Grade G3 (120 mg (N=6)): 0
TEAE Nausea, Toxicity Grade G4 (120 mg (N=6)): 0
TEAE Neutropenia, Toxicity Grade G3 (120 mg (N=6)): 0
TEAE Neutropenia, Toxicity Grade G4 (120 mg (N=6)): 1 (16.7)
TEAE Vomiting, Toxicity Grade All (120 mg (N=6)): 2 (33.3)
TEAE Vomiting, Toxicity Grade G3 (120 mg (N=6)): 1 (16.7)
TEAE Vomiting, Toxicity Grade G4 (120 mg (N=6)): 0
TEAE Neutropenia, Toxicity Grade All (120 mg (N=6)): 2 (33.3)
TEAE Constipation, Toxicity Grade All (150 mg (N=5)): 0
TEAE Constipation, Toxicity Grade G3 (150 mg (N=5)): 0
TEAE Constipation, Toxicity Grade G4 (150 mg (N=5)): 0
TEAE Decreased appetite, Toxicity Grade All (150 mg (N=5)): 1 (20.0)
TEAE Decreased appetite, Toxicity Grade G3 (150 mg (N=5)): 0
TEAE Decreased appetite, Toxicity Grade G4 (150 mg (N=5)): 0
TEAE Diarrhea, Toxicity Grade All (150 mg (N=5)): 1 (20.0)
TEAE Diarrhea, Toxicity Grade G3 (150 mg (N=5)): 0
TEAE Diarrhea, Toxicity Grade G4 (150 mg (N=5)): 0
TEAE Fatigue, Toxicity Grade All (150 mg (N=5)): 1 (20.0)
TEAE Fatigue, Toxicity Grade G3 (150 mg (N=5)): 1 (20.0)
TEAE Fatigue, Toxicity Grade G4 (150 mg (N=5)): 0
TEAE Headache, Toxicity Grade All (150 mg (N=5)): 1 (20.0)
TEAE Headache, Toxicity Grade G3 (150 mg (N=5)): 0
TEAE Headache, Toxicity Grade G4 (150 mg (N=5)): 0
TEAE Maculopapular rash, Toxicity Grade All (150 mg (N=5)): 0
TEAE Maculopapular rash, Toxicity Grade G3 (150 mg (N=5)): 0
TEAE Maculopapular rash, Toxicity Grade G4 (150 mg (N=5)): 0
TEAE Nausea, Toxicity Grade All (150 mg (N=5)): 4 (80.0)
TEAE Nausea, Toxicity Grade G3 (150 mg (N=5)): 1 (20.0)
TEAE Nausea, Toxicity Grade G4 (150 mg (N=5)): 0
TEAE Neutropenia, Toxicity Grade G3 (150 mg (N=5)): 0
TEAE Neutropenia, Toxicity Grade G4 (150 mg (N=5)): 1 (20.0)
TEAE Vomiting, Toxicity Grade All (150 mg (N=5)): 2 (40.0)
TEAE Vomiting, Toxicity Grade G3 (150 mg (N=5)): 0
TEAE Vomiting, Toxicity Grade G4 (150 mg (N=5)): 0
TEAE Neutropenia, Toxicity Grade All (150 mg (N=5)): 2 (40.0)
TEAE Constipation, Toxicity Grade All (210 mg (N=7)): 4 (57.1)
TEAE Constipation, Toxicity Grade G3 (210 mg (N=7)): 0
TEAE Constipation, Toxicity Grade G4 (210 mg (N=7)): 0
TEAE Decreased appetite, Toxicity Grade All (210 mg (N=7)): 3 (42.9)
TEAE Decreased appetite, Toxicity Grade G3 (210 mg (N=7)): 0
TEAE Decreased appetite, Toxicity Grade G4 (210 mg (N=7)): 0
TEAE Diarrhea, Toxicity Grade All (210 mg (N=7)): 0
TEAE Diarrhea, Toxicity Grade G3 (210 mg (N=7)): 0
TEAE Diarrhea, Toxicity Grade G4 (210 mg (N=7)): 0
TEAE Fatigue, Toxicity Grade All (210 mg (N=7)): 2 (28.6)
TEAE Fatigue, Toxicity Grade G3 (210 mg (N=7)): 0
TEAE Fatigue, Toxicity Grade G4 (210 mg (N=7)): 0
TEAE Headache, Toxicity Grade All (210 mg (N=7)): 0
TEAE Headache, Toxicity Grade G3 (210 mg (N=7)): 0
TEAE Headache, Toxicity Grade G4 (210 mg (N=7)): 0
TEAE Maculopapular rash, Toxicity Grade All (210 mg (N=7)): 2 (28.6)
TEAE Maculopapular rash, Toxicity Grade G3 (210 mg (N=7)): 0
TEAE Maculopapular rash, Toxicity Grade G4 (210 mg (N=7)): 0
TEAE Nausea, Toxicity Grade All (210 mg (N=7)): 4 (57.1)
TEAE Nausea, Toxicity Grade G3 (210 mg (N=7)): 0
TEAE Nausea, Toxicity Grade G4 (210 mg (N=7)): 0
TEAE Neutropenia, Toxicity Grade G3 (210 mg (N=7)): 0
TEAE Neutropenia, Toxicity Grade G4 (210 mg (N=7)): 0
TEAE Vomiting, Toxicity Grade All (210 mg (N=7)): 1 (14.3)
TEAE Vomiting, Toxicity Grade G3 (210 mg (N=7)): 0
TEAE Vomiting, Toxicity Grade G4 (210 mg (N=7)): 0
TEAE Neutropenia, Toxicity Grade All (210 mg (N=7)): 1 (14.3)
TEAE Constipation, Toxicity Grade All (300 mg (N=7)): 3 (42.9)
TEAE Constipation, Toxicity Grade G3 (300 mg (N=7)): 0
TEAE Constipation, Toxicity Grade G4 (300 mg (N=7)): 0
TEAE Decreased appetite, Toxicity Grade All (300 mg (N=7)): 3 (42.9)
TEAE Decreased appetite, Toxicity Grade G3 (300 mg (N=7)): 0
TEAE Decreased appetite, Toxicity Grade G4 (300 mg (N=7)): 0
TEAE Diarrhea, Toxicity Grade All (300 mg (N=7)): 1 (14.3)
TEAE Diarrhea, Toxicity Grade G3 (300 mg (N=7)): 0
TEAE Diarrhea, Toxicity Grade G4 (300 mg (N=7)): 0
TEAE Fatigue, Toxicity Grade All (300 mg (N=7)): 4 (57.1)
TEAE Fatigue, Toxicity Grade G3 (300 mg (N=7)): 0
TEAE Fatigue, Toxicity Grade G4 (300 mg (N=7)): 0
TEAE Headache, Toxicity Grade All (300 mg (N=7)): 4 (57.1)
TEAE Headache, Toxicity Grade G3 (300 mg (N=7)): 0
TEAE Headache, Toxicity Grade G4 (300 mg (N=7)): 0
TEAE Maculopapular rash, Toxicity Grade All (300 mg (N=7)): 2 (28.6)
TEAE Maculopapular rash, Toxicity Grade G3 (300 mg (N=7)): 0
TEAE Maculopapular rash, Toxicity Grade G4 (300 mg (N=7)): 0
TEAE Nausea, Toxicity Grade All (300 mg (N=7)): 6 (85.7)
TEAE Nausea, Toxicity Grade G3 (300 mg (N=7)): 1 (14.3)
TEAE Nausea, Toxicity Grade G4 (300 mg (N=7)): 0
TEAE Neutropenia, Toxicity Grade G3 (300 mg (N=7)): 0
TEAE Neutropenia, Toxicity Grade G4 (300 mg (N=7)): 1 (14.3)
TEAE Vomiting, Toxicity Grade All (300 mg (N=7)): 5 (71.4)
TEAE Vomiting, Toxicity Grade G3 (300 mg (N=7)): 0
TEAE Vomiting, Toxicity Grade G4 (300 mg (N=7)): 0
TEAE Neutropenia, Toxicity Grade All (300 mg (N=7)): 3 (42.9)
TEAE Constipation, Toxicity Grade All (Total (N=42)): 10 (23.8)
TEAE Constipation, Toxicity Grade G3 (Total (N=42)): 0
TEAE Constipation, Toxicity Grade G4 (Total (N=42)): 0
TEAE Decreased appetite, Toxicity Grade All (Total (N=42)): 10 (23.8)
TEAE Decreased appetite, Toxicity Grade G3 (Total (N=42)): 0
TEAE Decreased appetite, Toxicity Grade G4 (Total (N=42)): 0
TEAE Diarrhea, Toxicity Grade All (Total (N=42)): 7 (16.7)
TEAE Diarrhea, Toxicity Grade G3 (Total (N=42)): 0
TEAE Diarrhea, Toxicity Grade G4 (Total (N=42)): 0
TEAE Fatigue, Toxicity Grade All (Total (N=42)): 14 (33.3)
TEAE Fatigue, Toxicity Grade G3 (Total (N=42)): 1 (2.4)
TEAE Fatigue, Toxicity Grade G4 (Total (N=42)): 0
TEAE Headache, Toxicity Grade All (Total (N=42)): 9 (21.4)
TEAE Headache, Toxicity Grade G3 (Total (N=42)): 0
TEAE Headache, Toxicity Grade G4 (Total (N=42)): 0
TEAE Maculopapular rash, Toxicity Grade All (Total (N=42)): 7 (16.7)
TEAE Maculopapular rash, Toxicity Grade G3 (Total (N=42)): 0
TEAE Maculopapular rash, Toxicity Grade G4 (Total (N=42)): 0
TEAE Nausea, Toxicity Grade All (Total (N=42)): 25 (59.5)
TEAE Nausea, Toxicity Grade G3 (Total (N=42)): 2 (4.8)
TEAE Nausea, Toxicity Grade G4 (Total (N=42)): 0
TEAE Neutropenia, Toxicity Grade G3 (Total (N=42)): 0
TEAE Neutropenia, Toxicity Grade G4 (Total (N=42)): 4 (9.5)
TEAE Vomiting, Toxicity Grade All (Total (N=42)): 13 (31.0)
TEAE Vomiting, Toxicity Grade G3 (Total (N=42)): 1 (2.4)
TEAE Vomiting, Toxicity Grade G4 (Total (N=42)): 0
TEAE Neutropenia, Toxicity Grade All (Total (N=42)): 10 (23.8)
